For series [1], the system named is lesions of gastric mucosa. The series can be described thus: Test with ethanol containing hydrochloric acid (erosion frequency and erosion index). Format: in vivo, Rats. The following applies: for Inhibition of the erosion frequency Relative activity / Inhibition of the erosion index Relative activity: ED50 of cetraxate divided by ED50 of the compound tested; for ED50: Rattus norvegicus, po, read-out: Inhibition of the erosion frequency ED50 p.o.; for ED50 / Inhibition of the erosion index ED50 p.o.: rats, peroral, conc. hydrochloric acid/absolute ethanol 1 to 50. An excerpt: The principle of the method consists in that, simultaneously with the administration of absolute ethanol, hydrochloric acid is introduced to the stomach. Thus, the influence on systemic gastric acid inhibition action can be eliminated by the presence of the exogenous acid.
The reagent used in this test was a mixture of concentrated aqueous hydrochloric acid and absolute ethanol in a weight ratio of 1 to 50 in accordance with the dilution ratio used by Yamazaki et al. (Japan J. Pharmacol., 55 [1991], 415 to 424). In other respects, the experiment was performed as described under test 2.1., however, in addition to the erosion index calculated from the lenghts of the erosions in mm, the ratio of occurence of animals showing at least one gastric erosion within a test group, i.e. the erosion frequency, was also evaluated.

Series [2] concerns lesions of gastric mucosa. The series can be described thus: Test with absolute ethanol (gastric mucosa lesions, erosion index). The format is in vivo, Rats. The following applies: for Relative activity related to the inhibition of the free acid: gastroprotective action (absolute ethanol test) compared to the gastric acid inhibiting activity (Shay test, rats, p.o.); for activity in the test with absolute ethanol: result in words. On the procedure:
Rats of both sexes weighing 200 to 250 g, each previously starved for 24 hours, were used in this experiment. […] After one hour following the administration, the animals were killed by an overdose of ether, the stomach was excised and the alterations of gastric mucosa were examined. The lengths of the erosions were measured and summarized (expressed in mm) for each stomach to obtain the erosion index by calculating the average value of the group. The inhibition was calculated in percentage by comparing the value of the group treated with ethanol to that of the control group treated only with the vehicle. Various doses of the compounds to be tested were administered, perorally, in a volume of 5 ml/kg using a pretreatment time of 60 minutes. Eight rats were used for each dose. (A. Robert, Gastroenterology 77 [1979], 761 to 767). In the test with absolute ethanol which is useful for showing the gastroprotective activity, as to the effective dose range, a sharp difference can be made between the cytoprotective effect and the gastric acid inhibition, the latter resulting in the inhibition of the gastric erosion.

Series [3] is described as follows: Acute toxicity (LD50, Litchfield and Wilcoxon). The settings on record: mouse, in vivo, po; NMRI mice of both sexes, peroral, 7 days observation; "higher than" = highest dose administered without any death. On the procedure: The acute toxicity was determined on NMRI strain mice of both sexes weighing 20 to 25 g each by using 6 animals for each dose. The compounds to be tested were administered perorally in a volume of 20 ml/kg, the highest dose applied was 1 000 mg/kg. After the administration the animals were kept under usual laboratory conditions for 7 days. The LD50 values were calculated according to the method of Litchfield and Wilcoxon (J. Pharmacol. Exp. Ther., 96 [1949], 99).
The data given as "higher than" a certain value mean the highest dose administered without noting any death of animals.

The test system of series [4] is Helicobacter pylori. Kind of series: Antibacterial effect on Helicobacter pylori (MIC on blood agar). Format: cell-based. The following applies: for MIC: Helicobacter pylori, 72 h, 37°C. Here is the method: Helicobacter pylori strains used in these experiments were obtained from the biopsial samples of the stomachs of patients suffering from ulcerative diseases of the gastrointestinal system. From the pure culture of isolates a thick suspension was prepared with cysteine-inositol solution suitable for lyophilisation, and the suspension obtained was maintained in cold-resistant plastic ampoules in a deep-freezing chamber at a temperature of about -196°C. For the determination of the inhibitory effect of the compounds tested on Helicobacter pylori, blood agar containing 10 mg/litre of a stereoisomer of 23-[aminocarbonyl]-12-[{2-0-(3-amino-2,3,6-trideoxy-3-C-methyl-α-L-lyxo-hexopyranosyl)-β-D-glucopyranosyl}-oxy]-8,16-di-[chloro]-2,3,4,5,19,20,21,22,23,24,25,26,27,28,29,30-hexa-[decahydro]-5,19,34,36,38-penta-[hydroxy]-28-[{4-(methyl)-2-(methylamino)-1-(oxo)-pentyl}-amino]-3,21,25,28,41-penta-[oxo]-1H-6,9:15,18-[dietheno]-4,30-[iminomethano]-31,35-[metheno]-11,27,13-[[1]-propene[1,2]diyl[3]ylidene]-13H-10,14,2,22,26,29-benzodioxatetraazacycloheptatriacontine-1-carboxylic acid 〈vancomycin〉 and 25 mg/litre of [1R-(1R^x,3S^x,5R^x,6R^x,9R^x,11R^x,15S^x,16R^x,17R^x,18S^x,19E,21E,23E,25E,27E,29E,31E,33R^x,35S^x,36R^x,37S^x)]-33-[{3-(amino)-3,6-di-(deoxy)-β-D-mannopyranosyl}-oxy]-1,3,5,6,9,11,17,37-octa-[hydroxy]-15,16,18-tri-[methyl]-13-[oxo]-14,39-di-[oxa]-bicyclo-[33.3.1]-nonatriaconta-19,21,23,25,27,29,31-heptaene-36-carboxylic acid 〈amphotericin B〉 was used (C. A. M. McNulty and I. C. Dent: Susceptibility of clinical isolates of Campylobacter pylori to twenty one antimicrobial agents. Book of Abstracts, 4th European Congress of Clinical Microbiology, Nice [1989]).
The plates containing the strains were cultivated at 37°C for 72 hours under a gaseous atmosphere containing 10% of carbon dioxide and 5% of oxygen (D. M. Jones et al., J. Clin. Pathol., 37 [1984], 1 002).
The culture media were inoculated with a dilution of the broth culture of the strains grown overnight or with a suspension prepared from a culture obtained on a solid medium. About 10^5 of germs were applied to the surface of each plate.
A series of dilution were prepared from the compound to be tested. The MIC (minimal inhibiting concentration) value of the compounds tested was considered to be the lowest concentration inhibiting the growth of the test organism completely. The results obtained for (R,S)-2-(E)-[4'-(chloro)-phenylmethylene]-1-(E)-[3''-(hexylamino)-2''-(hydroxy)-propoxy-imino]-cyclohexane and colloidal bismuth subcitrate used as reference are given in Table IVa.

Series [5] relates to gastric acid secretion. Kind of series: Effect on the gastric acid secretion (Shay's method, pylorus ligation). Format: in vivo, Wistar rats. The following applies: test according to Shay, result in words. Here is the method:
The influence of the compounds on the gastric acid secretion was examined on starved Wistar rats of both sexes weighing 180 to 240 g each by using Shay's method (H. Shay et al., Gastroenterology, 5 [1945], 45). The compounds to be tested were given, perorally, 3 hours before the ligation of the pylorus. Four hours after the operation, the animals were killed by an overdose of ether, the stomach was excised, the stomach content was centrifuged and the free hydrochloric acid content of the gastric juice was determined by titration in the presence of Töpfer's reagent. The percentage of inhibition and then the ED50 values were determined by calculating average values for the groups and comparing those to the average values for the control group.

Values after ≈ are worked out from the molar mass of the structure shown.

One may read the ED50 as the dose that gives a 50% effect, or the effect in half of the subjects. By LD50 is commonly meant the dose expected to kill half of the subjects tested. Lower therefore signals a more toxic substance. For orientation: MIC means the smallest concentration in the dilution series that meets the test's criterion for growth inhibition. The low end stands for inhibition by little substance, the high end for a need for much substance.

As for `CC(C)N(CC(O)CO/N=C1\CCCC\C1=C/c1ccc(Br)cc1)C(C)C` (racemic) [(R,S)-2-(E)-[4'-(Bromo)-phenylmethylene]-1-(E)-[3''-(diisopropylamino)-2''-(hydroxy)-propoxy-imino]-cyclohexane], in series [1], the “Inhibition of the erosion frequency Relative activity” value was found to be 9.9, the “Inhibition of the erosion index Relative activity” value came to 3.7, the ED50 came out at 19.1 mg/kg and the “Inhibition of the erosion index ED50 p.o.” value is listed as 5.9 mg/kg. In addition, the “Relative activity related to the inhibition of the free acid” value in series [2] is “about 25.0”. In series [3], this compound registered an LD50 at 168 h of 1000 mg/kg.
Turning to `OC(CNC1CCCCC1)CO/N=C1\CCCC\C1=C/c1ccc(Cl)cc1` (racemic) [(R,S)-2-(E)-[4'-(Chloro)-phenylmethylene]-1-(E)-[3''-(cyclohexylamino)-2''-(hydroxy)-propoxy-imino]-cyclohexane], in series [1], the “Inhibition of the erosion index Relative activity” value is reported as 2.1, the ED50 lay within 30 to 60 mg/kg and the “Inhibition of the erosion index ED50 p.o.” value is 10.3 mg/kg. Moreover, the “Relative activity related to the inhibition of the free acid” value in series [2] is recorded as 30.0. The compound also registered an LD50 at 168 h in series [3] of more than 1000 mg/kg.
For `CN(C)CC(O)CO/N=C1\CCCC\C1=C/c1ccc(Cl)cc1` (racemic) [(R,S)-2-(E)-[4'-(Chloro)-phenylmethylene]-1-(E)-[3''-(dimethylamino)-2''-(hydroxy)-propoxy-imino]-cyclohexane], in series [1], the “Inhibition of the erosion index Relative activity” value came to 1.4, the ED50 was in the range of 30 to 60 mg/kg and the “Inhibition of the erosion index ED50 p.o.” value was determined as 15.8 mg/kg. Besides, the LD50 at 168 h in series [3] is more than 1000 mg/kg.
Turning to `CCCCCCNCC(O)CO/N=C1\CCCC\C1=C/c1ccc(Cl)cc1` (racemic) [(R,S)-2-(E)-[4'-(Chloro)-phenylmethylene]-1-(E)-[3''-(hexylamino)-2''-(hydroxy)-propoxy-imino]-cyclohexane], the “Inhibition of the erosion frequency Relative activity” value in series [1] is listed as 7.5. The “Inhibition of the erosion index Relative activity” value in series [1] came out at 3.1. Moreover, in series [1], the ED50 came to 25.2 mg/kg. Further, the “Inhibition of the erosion index ED50 p.o.” value in series [1] was 7.2 mg/kg. In series [2], the “Relative activity related to the inhibition of the free acid” value was 25.0. The MIC in series [4] (Helicobacter pylori strain 867/90) came to 1.9 µg/mL (≈ 4.83 µM); in series [4] (Helicobacter pylori strain 1596) it was 0.9 µg/mL (≈ 2.29 µM); in series [4] (Helicobacter pylori strain 3842), 1.9 µg/mL (≈ 4.83 µM); in series [4] (Helicobacter pylori strain 6656) it was 1.9 µg/mL (≈ 4.83 µM); in series [4] (Helicobacter pylori strain 6709), 1.9 µg/mL (≈ 4.83 µM). Moreover, the “effectiveness against Helicobacter pylori” value in series [4] (compared with colloidal bismuth subcitrate, result in words) is “substantially more effective in the test than the colloidal bismuth subcitrate”. In series [3], this compound gave an LD50 at 168 h of more than 1000 mg/kg.
`CN(CC(O)CO/N=C1\CCCC\C1=C/c1ccc(Cl)cc1)C1CCCCC1` (racemic) [(R,S)-2-(E)-[4'-(Chloro)-phenylmethylene]-1-(E)-[3''-{N-(methyl)-N-(cyclohexyl)-amino}-2''-(hydroxy)-propoxy-imino]-cyclohexane] yielded an LD50 at 168 h in series [3] of more than 1000 mg/kg.
Consider `CCCCCCNCC(O)CO/N=C1\CCCC\C1=C/c1ccccc1` (racemic) [(R,S)-2-(E)-[Phenylmethylene]-1-(E)-[3'-(hexylamino)-2'-(hydroxy)-propoxy-imino]-cyclohexane], for which, in series [1], the “Inhibition of the erosion frequency Relative activity” value turned out to be 7.4, the “Inhibition of the erosion index Relative activity” value was determined as 1.9, the ED50 came out at 25.7 mg/kg and the “Inhibition of the erosion index ED50 p.o.” value stood at 11.5 mg/kg. Further, the “Relative activity related to the inhibition of the free acid” value in series [2] was “about 250.0”. This compound yielded an LD50 at 168 h in series [3] of more than 1000 mg/kg.
As for `NC[C@H]1CC[C@H](C(=O)Oc2ccc(CCC(=O)O)cc2)CC1` [cetraxate, 3-[4-{Trans-4-(aminomethyl)-cyclohexylcarbonyloxy}-phenyl]-propionic acid, reference compound], in series [1], the “Inhibition of the erosion frequency Relative activity” value is 1.0, the “Inhibition of the erosion index Relative activity” value is 1.0, the ED50 was 189 mg/kg and the “Inhibition of the erosion index ED50 p.o.” value is 22.0 mg/kg. For the same compound, the “activity in the test with absolute ethanol” value in series [2] was “nearly identical low activity”. Moreover, in series [5], the “gastric acid secretion inhibition” value is “only a moderate gastric acid secretion inhibition”. In series [3], this compound registered an LD50 at 7 days of more than 1000 mg/kg.
In the case of `COc1ccc2[nH]c([S+]([O-])Cc3ncc(C)c(OC)c3C)nc2c1` (stereo not shown) [omeprazole, 5-[Methoxy]-2-[{4-(methoxy)-3,5-di-(methyl)-2-pyridyl}-methylsulfinyl]-benzimidazole, reference compound], the LD50 at 7 days in series [3] is more than 4000 mg/kg.
For the compound “the basic aluminum salt of saccharose hydrogen sulfate [sucralfate, reference compound]”, the “activity in the test with absolute ethanol” value in series [2] was “nearly identical low activity”.

Source of the values: patent publication EP0636368B1, “The use of 2- phenylmethylene -1- 3'-(amino)-2'-(hydroxy)--propoxy-imino -cyclohexane derivatives” (EGIS GYOGYSZERGYAR RT., priority 1993, dated 1995).
